System: S. aureus ATCC 6538
Experiment: Quantitative modified AOAC Use Dilution Test, log reduction on stainless steel penicylinders
Format: cell-based
Details: 5% Fetal bovine serum soil load, contact time 10 min., 10% of the product
Source text: Tests were done using the aforementioned modified version of the AOAC Use Dilution Test, to quantify the number of viable bacteria remaining on the stainless steel penicylinders. […] Starting populations are listed in parentheses.

## [Na+].[OH-] [13% NaOH, sodium hydroxide]
40° C.
  Average Log Reduction: 2.69
60° C.
  Average Log Reduction: 7.00
RT
  Average Log Reduction: 1.76

From patent US7838485B2, “Biodegradable alkaline disinfectant cleaner with analyzable surfactant” (American Sterilizer Company, priority 2007, dated 2010)
